The test system of test [1] is 16HBE140- cells. The test can be described thus: Phage ELISA binding to 16HBE140- cells. The settings on record: unfixed cells; for OD 450 nm: 10^10 pfu/ml, average of triplicate wells; for Binding to 16HBE140- cells (in words): phage ELISA. It is filed as cell-based, human. The procedure: Phage binding to 16HBE140- cells was analyzed using confluent cells grown with DMEM-F12 complete medium in 96-well collagen coated plates (BD Biosciences, San Diego, Calif.) at 37° C. in 5% CO2. The cells were washed with DPBS and phage diluted in DPBS containing 1% BSA (DPBS-BSA) were applied in 100 μl. Bound phage were detected using primary antibody (mouse IgG T7 tail fiber monoclonal antibody diluted 1:2000 in DPBS-BSA) and secondary antibody (goat anti-mouse IgG HRP diluted 1:5000 in DPBS-BSA) followed by detection with OptEIA reagents as above.
Binding of phage T7Select®10-3b displaying Trp cage TC5b (Trp cage) was compared to binding of three phage clones selected from the naïve Trp cage library after 3 rounds of panning against the human bronchial epithelial cell line 16HBE140-. Results represent the average of triplicate wells.
(In general: ELISA stands for enzyme-linked immunosorbent assay.)

For test [2], the system named is antibody AB167. Briefly: Phage ELISA for TAG suppression (binding of antibody AB167). Also on record: species or system rabbit. The settings on record: 10^8 pfu/ml; relative to clone B1 grown in the same host; /B = nonsuppressor BLT5403, /C = suppressor C600CR; average of triplicate wells. The protocol: (§1) Phage purified by double precipitation with PEG was diluted in Dulbecco's PBS (DPBS) and applied to wells of a 96-well Maxisorp® plate (Nalge Nunc International®, Rochester, N.Y.) and allowed to bind for one hour followed by three washes with 400 μl of OptEIA wash buffer (BD Biosciences) and blocking with 1% BSA in TBS-Tween (0.1%). All washes were done at room temperature with slow orbital shaking. Antibody AB 167 diluted 1:500 was applied in PBS-T containing 1% BSA and allowed to bind for one hour at room temperature then washed five times with 400 μl of wash buffer. Bound antibody was detected with the secondary antibody goat anti-rabbit HRP diluted 1:1000 in PBS-T with 1% BSA applied for one hour and washed five times with 400 μl of wash buffer followed by development with OptEIA reagents according to the manufacturer's directions. Means were compared using Student's t-test.
Growth of phage containing the insert encoding Trp cage TC5b in the host BLT5403 which limits expression to 5 to 10 copies of the peptide, produced clones displaying the expected sequence […] (SEQ ID NO: 530) with a low frequency of mutations (one out of twelve sequenced clones). […] Some of the mutant clones contained the TAG stop codon within the Trp cage sequence and were expected to result in the display of truncated peptides. Two nonsense mutants, E7 which contained a TAG stop codon at Tyr-3 of the Trp cage sequence NL*IQWLKDGGPSSGRPPPS (SEQ ID NOs: 588 and 534, respectively in order of appearance) and E12 which contained a TAG stop codon at Trp-6 of the Trp cage sequence NLYIQ*LKDGGPSSGRPPPS (SEQ ID NOs: 535 and 553, respectively in order of appearance), were chosen to test the effectiveness of the suppressor host C600CR by ELISA. […] Since AB167 is a polyclonal antibody, some binding to the truncated peptides of E7 and E12 was expected with possibly greater binding to E12 because it is three residues longer than E7.
Binding of antibody AB167 to T7Select® 10-3b phage grown in the nonsuppressor host BLT5403 (B) was compared with binding to phage grown in the suppressor host C600CR (C). […] Binding of the antibody to phage mutants E7 and E12 displaying truncated Trp cages grown in B (E7/B and E12/B, respectively) was related to antibody binding to phage clone B I displaying the full length Trp cage on a percentage basis. The phage mutants grown in C (E7/C and E12/C) were likewise related to B1 grown in C. Results represent the average of triplicate wells.

In test [3] the test system is HepG2 cells. The test can be described thus: Cell-based ELISA for cell-specific binding, HepG2. The arrangement: species or system human. The following applies: methanol-fixed HepG2 cells, M13 PHD-7 phage clones. The procedure:
(§2) For screening cell-specific binding phage display peptides, confluent HepG2 or HUVEC cells grown in DMEM-F12-complete in a 96-well plate fixed with methanol, stored at 4° C. Applied 250 μl/well of diluted phage and incubated in wells for 1 hour while shaking. Stopped reactions with 75 ul of 1M HCl after ˜5-7 min, read at 450 nm.
(§3) Representative display peptides isolated from panning against either HepG2 or HUVEC cells with the Trp cage and M13 libraries were tested for cell-specific binding. The peptide having the amino acids sequence SIGYLPL (SEQ ID NO: 532) and the peptide having the amino acid sequence LTAELTP (SEQ ID NO: 533) served as positive HepG2 binding controls. The 7-mer display peptide represented by the amino acid sequence HPQ served as a negative binding control.
(§4) Staining by the positive controls was less intense than NLQEFLF (SEQ ID NO: 61).

In test [4] the test system is HUVEC cells. Briefly: Cell-based ELISA for cell-specific binding, HUVEC. The arrangement: species or system human. The following applies: M13 PHD-7 phage clone. The protocol: as §2, §3, §4
Test [5] concerns HepG2 cells. Briefly: Fluorescence microscopy with FITC-labeled phage on HepG2 cells. It is filed as cell-based, human. The settings on record: ~e9 pfu per well, 1 hr, visualized at 200×. The procedure: The phage microscopy protocol is as follows:
1. Grow HepG2 cells on collagen I coated glass chamber slides to 100% confluence.
2. On the day of the experiment, wash cells 3 to 5 times ˜300 μl/well of PBS.
3. Fix with 100 μl/well of methanol (chilled at −20C) for 7 min at room temperature.
4. Wash 3-5 times with ˜300 μl/well of PBS.
5. Apply 10 μl/well (˜e9 pfu) of FITC-labeled M13 phage.
6. Incubate on a rotating platform at room temperature for 1 hr in the dark.
7. Wash 5 times with ˜300 μl/well of PBS.
8. Remove chambers, dry, mount, and visualize at 200×.
as §4

In test [6] the test system is antibody AB167. The test can be described thus: Phage ELISA with antibody AB167 for display of Trp cage TC5b on the phage capsid. It is filed as binding, rabbit. The following applies: 1×10^6, 1×10^7 and 1×10^8 phage per well. The procedure:
as §1
Two negative controls were used. One was the 10-3b vector with no insert and the other was the 10-3b vector containing the S-Tag. All phage were incubated with the AB167 antibody at 1×10^6, 1×10^7 and 1×10^8 phage per well for the ELISA.

The subject of test [7] is antibody AB167. Briefly: Western analysis of phage lysates with antibody AB167. It is filed as binding, rabbit. The settings on record: SDS-PAGE separated proteins, AB167 diluted 1:2500. The procedure: For Western analysis, phage were purified by double precipitation with PEG and denatured by boiling in Tris-Glycine SDS sample buffer (2×) with 1% beta-mercaptoethanol (BME). A 10 μl sample containing 1×10^11 pfu/ml was loaded into a well of a 1 mm 4% to 20% Tris-Glycine gel (Invitrogen®) and electrophoresed for 1.5 hours at 150 volts (constant voltage) in Tris-Glycine SDS running buffer. The separated proteins were transferred to a PVDF membrane (1.5 hours at room temperature) and blocked with 3% non-fat dry milk in TBS-T (0.05%) for one hour at room temperature. The membrane was probed for two hours with antibody AB167 diluted 1:2500 at room temperature followed by three five minute washes with TBS-T. Goat anti-rabbit HRP diluted 1:5000 was used to detect the bound AB167 antibody. It was incubated with the membrane for one hour at room temperature followed by four 10 minute washes and the membrane was developed with SuperSignal West Femto Maximum Sensitivity Substrate® (Pierce®) according to the manufacturer's instructions. MagicMark XP Western Protein Standards were used for size reference standards.
For the Western blot analysis of Trp cage TC5b expressed with the 10-3b T7Select® vector, proteins in lysates from phage infected cells were separated by SDS-PAGE in Coomasie stained gel. […]

Regarding DAYPQWLFTPGPTSGRPPPL* [624-55-21], the “OD 450 nm” value in test [1] worked out at 0.15.
On to DPYAQWLQSMGPHSGRPPPR* [624-55-29], for which, in test [1], the “OD 450 nm” value came to 0.39 and the “Binding to 16HBE140- cells (in words)” value is “demonstrated binding”.
Consider DRYPQWLNGMGPSSGRPPPN* [624-55-20], for which, in test [1], the “OD 450 nm” value is reported as 0.22.
Consider NL*IQWLKDGGPSSGRPPPS [E7/B], for which the Percent antibody binding in test [2] is 32%.
Turning to NL*IQWLKDGGPSSGRPPPS [E7/C], the Percent antibody binding in test [2] came out at 65%.
For the substance “NLQEFLF [M13 PHD-7 phage display peptide isolated by panning against HepG2 cells]”, the “Binding to HepG2 cells (cell-based ELISA)” value in test [3] is “HepG2 specific binding”. Moreover, in test [4], the “Binding to HUVEC cells (cell-based ELISA)” value is listed as “did not bind”. Further, the “Binding/staining of FITC-labeled phage on methanol-fixed HepG2 cells” value in test [5] is recorded as “bound”.
The substance NLYIQ*LKDGGPSSGRPPPS [E12/B] gave a Percent antibody binding in test [2] of 50%.
In the case of NLYIQ*LKDGGPSSGRPPPS [E12/C], in test [2], the Percent antibody binding is recorded as 62%.
On to “NLYIQWLKDGGPSSGRPPPS [10-3b/TC5b, reference compound]”, for which the “ELISA signal with antibody AB167” value in test [6] is “signal was detected”. Besides, the “Binding of antibody AB167 to protein of phage lysate (Western blot)” value in test [7] is “contained a protein that bound the Trp cage specific antibody AB167”. Moreover, in test [1], the “OD 450 nm” value was found to be 0.22 and the “Binding to 16HBE140- cells (in words)” value is “low”.
On to NLYIQWLKDGGPSSGRPPPS [B1/C], for which the Percent antibody binding in test [2] came to 100%.

The values above are taken from patent US7704953B2, “Phage displayed cell binding peptides” (MDRNA, Inc., priority 2006, dated 2010).
